Patent US5614562A, “Method of treating drug resistant tumor cells using organoselenones” (The University of Sourthern California, priority 1992, dated 1997)
In brackets after ≈: the same amount, converted by molar mass.

Assays:
[1] = tested on: 7 different human colon carcinoma cell lines; settings: read-out: average IC50, NCI in vitro screen; cited from earlier work
[2] = tested on: HCT/VP35; assay: In vitro cytotoxicity, VP16 resistant HCT/VP35 human colon carcinoma; assay type: cell-based; settings: for IC50: Homo sapiens, HCT/VP35, VP16 resistant, data provided by Bristol-Myers Laboratories; for ratio of IC50 values HCT/VP35 vs HCT116: IC50 divided by IC50 for HCT116
Excerpt: | HCT/VP35 human colon, VP16 resistant

[3] = tested on: HCT116; assay: In vitro cytotoxicity, HCT116 human colon carcinoma; assay type: cell-based; settings: Homo sapiens, HCT-116; data provided by Bristol-Myers Laboratories
Excerpt: ^b Cell lines: HCT116 human colon (sensitive to VP16 and VM26)

[4] = tested on: P388 murine leukemia ascites cells; assay: In vivo growth inhibition of P388 leukemia ascites in mice; parameters: species or system murine; BDF1 mice
Experimental: In FIG. 2 and Table II are shown the results of in vivo antitumor testing of 2-chloroethyl aryl selenones against murine P388 Leukemia ascites cells.
Examples 5-8 consisted of the use of 2-chloroethyl 4-methoxy-phenyl selenone to treat the mice. Examples 9-12 were the same as example 5 except 2-chloroethyl phenyl selenone was employed.
(§1) The maximally tolerated duration of the highest dose shown in FIG. 2 and Table II, 6 mg/kg/day i.p. of 2-chloroethyl phenyl selenone, was 10 days in a separate experiment. In the experiments shown, i.p. drug was administered for 5 consecutive days, Days 1-5, beginning the day after tumor inoculation (on Day 0).
Mice were inoculated i.p. with 1×10^6 cells of P388 murine leukemia ascites passaged in BDF1 mice, in a volume of 0.1 ml. The selenones were formulated in normal (0.9%, w/v) NaCl for an injection volume of 0.3 ml. Control mice (12 in each group) received i.p. saline alone comparative examples 1 and 2. For each dose level and drug, 6 mice per group were used.
The plateauing of weight increase, at Days 8-9, is consistent with classical Gompertizian tumor growth kinetics (Laird, A. K. Brit. J. Cancer 18:490-502, 1964). The delays observed in the time period before the onset of the exponential phase of weight increase are given in Table II, defined as the Growth Delay.
^a Calculated from Day at which weight first exceeded baseline (Day 0

[5] = tested on: L1210/0; assay: Cytotoxicity, 48-hr exposure of L1210/0 leukemia cells; assay type: cell-based, murine; settings: Mus musculus, L1210/0; 48-hr exposure; read-out: IC50 L1210/0
Excerpt: (§2) Murine L1210 leukemia cells sensitive (L1210/0) and resistant (L1210/L-PAM)to L-phenylalanine mustard were obtained that are adaptable to either in vitro or in vivo passage.
(§3) Broad resistance of the L1210/L-PAM cell line is shown by the approximately 4-fold and 9-fold increases in IC50, compared to L1210/0, for L-PAM and mechlorethamine, respectively (Comparative Examples 3 and 4). […].

[6] = tested on: L1210/L-PAM; assay: Cytotoxicity, 48-hr exposure of L-PAM resistant L1210/L-PAM leukemia cells; assay type: cell-based, murine; settings: 48-hr exposure; for IC50: Mus musculus, L1210/LPAM, read-out: IC50 L1210/L-PAM
Excerpt: as §2, §3

[7] = Acute intraperitoneal toxicity / maximally tolerated dose in mice; assay type: in vivo; settings: 6 mg/kg/day i.p., separate experiment
Experimental: as §1

[8] = assay type: physicochemical
[9] = tested on: HCT/VM46; assay: In vitro cytotoxicity, VM26 resistant HCT/VM46 human colon carcinoma; assay type: cell-based; settings: for IC50: Homo sapiens, VM26 resistant, data provided by Bristol-Myers Laboratories; for ratio of IC50 values HCT/VM46 vs HCT116: IC50 divided by IC50 for HCT116
Excerpt: | HCT/VM46 human colon, VM26 resistant

[10] = Swain-Scott product competition of sulfur nucleophiles vs NBP (second-order rate constant ratios); assay type: physicochemical; settings: for log(kS/knbp): S2O3^2- vs NBP, 37° C., 10 h, 52% aqueous acetone, mean ± S.D.
Excerpt: (§4) The properties of nucleophilicity and electivity can be quantitatively expressed as n and s constants in the Swain-Scott linear free energy relationship. It has been shown that s and n constants of biological alkylating agents and nucleophiles, respectively, can be readily determined with high precision, using 4-(4-nitrobenzyl)pyridine (NBP) as a competitive substrate for alkyl product formation (Spears, C. P. Mol. Pharmacl.19:496-504,1981; Barbin,A.,Bereziat, A., O'Neill, I. K., and Bartsch, H. Chem.-Biol. Interact,73:261-277, 1990; Kang, S. I., and Spears,C. P. J. Med. Chem. 33:1544-1547, 1990). Broad-spectrum antitumor alkylating agents show uniformly high s constants Spears, C. P. Mol.Pharmacol. 19:496-504, 1981; in contrast, mutagenically efficient alkylating agents show low values (Peterson,A. R., Landolph, J. R., Peterson, H., Spears, C. P., and Heidelberger, C. Cancer Res. 41:3095-3099, 1981; Barbin, A., and Bartsch, H. Mut. Res.215:95-106, 1989).
(§5) FIG. 1 is a Swain-Scott plot of the ratio of second-order rate constants, log (ky /knbp) for several model sulfur, nitrogen, and oxygen nucleophiles in their reactions with 2-chloroethyl 4-methoxy-phenyl selenone ("CEMOS"), vs. their published nucleophilicity nCH3 Br constants. Values of n were taken to be 2.72 for acetate (AcO--), 3.3 for ascorbate, 3.6 for pyridine, 4.0 for azide (N3), 3.94 for nitrite, 5.1 for thiol (SH), 6.18 for sulfite (SO3^2-), 6.36 for thiosulfate (S2 O3^2-), and 6.6 for thiophosphate (HPSO3^2-) (derived from the Ogston "Competition Factor") (Ogston, A. G., Holiday, E. R., Philpot, J. S. L., and Stocken, L. A. Trans.Faraday Soc. 44:45-52, 1948).
Extrapolation of Eq. A predicts that the log (ky /knbp) values for the thiol nucleophiles should have ranged from 3 to 5. However, the measured ratios of second-order rate constants were approximately 100-fold lower than this expectation. Also, the linear regression relationship, Eq. B (FIG. 1), for correlation of log (ky /knbp) values vs. nCH3 Br constants gave a sulfur nucleophile selectivity constant, s, equal to 0.84, approximately one-half of the value for reaction with nitrogen and oxygen nucleophiles:
(§6) ^a By competition between S2 O3^2- and NBP log(kS
(§7) /knbp) or N3^- and NBP log(kN /knbp ) at
(§8) 37° C. and 10 h, in 52% aqueous acetone, using initial
(§9) concentrations of 0.0435 mM and 0.0217 mM of 2chloroethyl phenyl selenone
(§10) and nornitrogen mustard, respectively, as described. Values, experimental

[11] = Swain-Scott product competition of nitrogen and oxygen nucleophiles vs NBP (second-order rate constant ratios); assay type: physicochemical; settings: for log(kN/knbp): N3^- vs NBP, 37° C., 10 h, 52% aqueous acetone, mean ± S.D.
Excerpt: as §4, §5
The slope of the linear regression equation through the 5 nitrogen and oxygen nucleophiles gives a Swain-Scott selectivity constant, s, equal to 1.79, by Eq. A, shown in FIG. 1:
as §6, §7, §8, §9, §10

[12] = tested on: HT29 human colon carcinoma cells; assay: Growth inhibition cytotoxicity against HT29 human colon carcinoma cells (MER(+)); assay type: cell-based; settings: HT-29
Excerpt: (Example 15) These cells are very high in the alkyltransferase enzyme for repair of DNA guanine O6-alkyl products, and therefore are considered strongly MER(+) in phenotype. Levels of this enzyme in HT29 cells have averaged about 0.5 pmol/mg protein in recent studies (K. Chan, et al., unpublished). […] Thus, the lack of cross-resistance to ethyleneimines by the present invention of 2-chloroethyl aryl selenones is not associated with resistence mediated by the alkyltransferase repair enzyme.

[13] = literature value; cited from earlier work
[14] = methanol, 35° C.; cited from earlier work
[15] = 1.0 mg/kg daily i.p., Days 1-5 (total 5 mg/kg), Ex. 6, Ex. 9
[16] = 2.0 mg/kg daily i.p., Days 1-5 (total 10 mg/kg), Ex. 7, Ex. 10
[17] = 4.0 mg/kg daily i.p., Days 1-5 (total 20 mg/kg), Ex. 8, Ex. 11

## O=[Se](=O)(CCCl)c1ccccc1 [2-chloroethyl phenyl selenone]
[1]
  IC50: 2300 ± 1600 nM
[2]
  IC50: 0.82 µg/mL (≈ 3.26 µM)
  ratio of IC50 values HCT/VP35 vs HCT116: 0.8
[3]
  IC50: 1.02 µg/mL (≈ 4.05 µM)
[4]; [15]
  Growth delay: 4 days
[4]; 1 mg/kg/d i.p.
  inhibition of tumor growth by the lowest dose tested: inhibition of tumor growth
[4]; [16]
  Growth delay: 7 days
[4]; [17]
  Growth delay: 8 days
[4]; 6 mg/kg daily i.p., Days 1-5 (total 30 mg/kg), Ex. 12
  Growth delay: 11 days
[5]
  IC50: 550 nM
[6]
  Ratio of IC50s (L1210/L-PAM vs L1210/0): 0.9
  IC50: 510 nM
[7]
  maximally tolerated duration: 10 days
[8]; alkalinized alkyl-NBP, mean ± S.D.
  AA (alkylating activity, absorption at 560 nm): 0.75 ± 0.004
[8]; mechlorethamine HCl = 100%
  alkylating activity relative to mechlorethamine HCl: 140%
[8]; relative to nor-nitrogen mustard
  alkylating activity, percent of nor-nitrogen mustard: 170%
[9]
  IC50: 0.44 µg/mL (≈ 1.75 µM)
  ratio of IC50 values HCT/VM46 vs HCT116: 0.4
[10]
  log(kS/knbp): 1.77 ± 0.05
[10]; listed as SKI-273
  log(kS/knbp): 1.77±0.05
[11]
  log(kN/knbp): 1.95 ± 0.11
[11]; listed as SKI-273
  log(kN/knbp): 1.95±0.11
[12]
  IC50: 2800 nM

## COc1ccc([Se](=O)(=O)CCCl)cc1 [2-chloroethyl 4-methoxy-phenyl selenone]
[2]
  IC50: 0.6 µg/mL (≈ 2.13 µM)
  ratio of IC50 values HCT/VP35 vs HCT116: 0.6
[3]
  IC50: 1.01 µg/mL (≈ 3.59 µM)
[4]; 0.5 mg/kg daily i.p., Days 1-5 (total 2.5 mg/kg), Ex. 5
  Growth delay: 0 days
[4]; [15]
  Growth delay: 0 days
[4]; [16]
  Growth delay: 3 days
[4]; [17]
  Growth delay: 7 days
[4]; vs. parent 2-chloroethyl phenyl selenone
  relative antitumor effectiveness: less effective than the parent 2-chloroethyl phenyl selenone
[5]
  IC50: 360 nM
[6]
  Ratio of IC50s (L1210/L-PAM vs L1210/0): 0.9
  IC50: 360 nM
[8]; FIG. 1 experiments
  alkylating activity in the FIG. 1 experiments: 103%
[9]
  IC50: 0.42 µg/mL (≈ 1.49 µM)
  ratio of IC50 values HCT/VM46 vs HCT116: 0.4
[10]
  selectivity within the thiol series: abnormally low
[10]; sulfur nucleophiles vs. extrapolation of Eq. A
  measured ratios of second-order rate constants lower than expectation: approximately 100 fold
[10]; sulfur nucleophiles, Eq. B, FIG. 1
  sulfur nucleophile selectivity constant, s: 0.84
[13]
  alkylating activity reported (Kang and Spears 1990): 100%
[11]; 5 nitrogen and oxygen nucleophiles, Eq. A, FIG. 1
  Swain-Scott selectivity constant, s (nitrogen and oxygen nucleophiles): 1.79
[11]; from intercept of Eq. A
  susceptibility to aqueous hydrolysis: extremely low susceptibility
[11]; n=3.6 (pyridine)
  log (ky/knbp) at n=3.6: nearly zero
[11]; nitrogen and oxygen nucleophiles, Eq. A, listed as CEMOS
  intercept of Eq. A, log (ky/knbp) vs. nCH3Br: 6.40

## C[Se](=O)(=O)c1ccccc1 [PhSeO2 CH3]
[14]
  reactivity in methylation of dimethylsulfide: three times as reactive as methyl iodide
